Results published in paper PMC8586708, “SC75741, A Novel c-Abl Inhibitor, Promotes the Clearance of TDP25 Aggregates via ATG5-Dependent Autophagy Pathway” (Frontiers in Pharmacology, 2021).

Target: T1, c-Abl (Homo sapiens, UniProt P00519)
T1 construct: gene ABL1
Assay: in vitro kinase assay, dose-response
Assay type: biochemical

T1 sequence (P00519 whole entry): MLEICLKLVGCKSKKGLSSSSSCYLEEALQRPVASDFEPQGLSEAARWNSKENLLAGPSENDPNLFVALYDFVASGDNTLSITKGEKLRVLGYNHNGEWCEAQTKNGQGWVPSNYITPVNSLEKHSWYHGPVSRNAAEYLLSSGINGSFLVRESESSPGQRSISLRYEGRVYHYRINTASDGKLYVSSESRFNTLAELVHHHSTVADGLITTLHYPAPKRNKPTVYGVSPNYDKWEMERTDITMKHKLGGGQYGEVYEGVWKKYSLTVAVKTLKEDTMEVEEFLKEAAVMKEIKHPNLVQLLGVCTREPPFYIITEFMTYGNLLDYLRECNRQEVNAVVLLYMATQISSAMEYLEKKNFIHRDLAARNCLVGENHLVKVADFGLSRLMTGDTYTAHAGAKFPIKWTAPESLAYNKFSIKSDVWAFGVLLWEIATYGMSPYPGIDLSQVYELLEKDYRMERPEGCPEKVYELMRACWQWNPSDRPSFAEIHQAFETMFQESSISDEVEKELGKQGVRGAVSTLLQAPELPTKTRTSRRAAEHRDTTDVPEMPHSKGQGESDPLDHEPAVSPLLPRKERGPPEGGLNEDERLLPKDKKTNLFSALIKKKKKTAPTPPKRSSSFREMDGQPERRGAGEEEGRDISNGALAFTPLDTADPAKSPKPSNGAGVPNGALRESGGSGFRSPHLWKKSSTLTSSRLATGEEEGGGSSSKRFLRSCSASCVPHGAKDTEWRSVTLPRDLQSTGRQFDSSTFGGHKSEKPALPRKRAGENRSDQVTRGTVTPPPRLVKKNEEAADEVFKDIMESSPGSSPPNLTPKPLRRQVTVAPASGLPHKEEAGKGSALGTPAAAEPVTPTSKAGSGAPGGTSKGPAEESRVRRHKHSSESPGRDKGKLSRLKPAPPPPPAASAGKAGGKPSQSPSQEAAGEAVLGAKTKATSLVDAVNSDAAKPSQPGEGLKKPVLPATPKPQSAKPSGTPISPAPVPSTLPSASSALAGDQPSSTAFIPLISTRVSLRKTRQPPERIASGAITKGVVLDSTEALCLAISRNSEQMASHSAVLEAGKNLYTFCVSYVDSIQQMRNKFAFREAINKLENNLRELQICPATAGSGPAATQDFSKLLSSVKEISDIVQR

**Q.** `O=C(c1ccccc1)c1ccc2nc(NC(=O)c3csc(C4CCN(c5ncnc6ccsc56)CC4)n3)[nH]c2c1` [SC75741] was tested. Which IC50 did it give?
**A.** 263 nM
